Assay results reported in the NIST ThermoML archive (doi:10.1016/j.jct.2012.12.017).
Numbers after ± are expanded uncertainties.

Key:
[1] = refractive index (Na D-line) (dimensionless); details: 298.15 K; 101.33 kPa; Liquid; Abbe refractometer
[2] = 298.15 K; 101.33 kPa; Liquid; Vibrating tube method

refractive index [1] | mass density [2] [kg/m3] | Compound
1.35936 ± 0.00033 | 785.2 ± 0.24 | CCO [ethanol]
1.38529 ± 0.00033 | 679.57 ± 0.25 | CCCCCCC [heptane]
1.37241 ± 0.00033 | 655.2 ± 0.25 | CCCCCC [hexane]

Compound | refractive index [1] | mass density [2] [kg/m3]
CCC[n+]1cccc(C)c1.O=S(=O)([N-]S(=O)(=O)C(F)(F)F)C(F)(F)F | 1.44485 ± 0.00033 | 1447.94 ± 0.62
CC[n+]1cccc(C)c1.O=S(=O)([N-]S(=O)(=O)C(F)(F)F)C(F)(F)F | 1.44376 ± 0.00033 | 1488.5 ± 0.66
